US12605335B2, “Triptolide lignocerate, liposome thereof and preparation method therefor” (SHANGHAI WEI ER BIOPHARMACEUTICAL TECHNOLOGY CO., LTD., priority 2022, dated 2026)
Like-named read-outs stand apart in the source and are kept apart here.

Legend:
[1] = Log P determination by shake-flask; type: physicochemical
Protocol: The log P was determined by shake-flask. First, a certain amount of water and n-octanol are added into the funnel, shaken and separated to obtain water-saturated n-octanol solution and n-octanol saturated aqueous solution; quantify and accurately weigh triptolide and its derivatives in a volumetric bottle containing water-saturated n-octanol solution, and dissolve by ultrasound, drop water-saturated n-octanol solution, dilute and volume. Take 0.5 mL of this solution in a 5 mL volumetric flask, dilute with MeOH and volume. The concentration of triptolide and its derivatives was determined by the assay method; take the above solution to the Xilin bottle, add 10 times the amount of n-octanol saturated aqueous solution, and shake in a bath of 37° C. and 75 rpm for one day, so that triptolide and its derivatives reach equilibrium state in aqueous and organic phase. The n-octanol phase was transferred into a centrifuge tube, centrifuged at 3000 rpm for 10 min, precision measuring n-octanol phase in a volumetric flask, diluted 10 times with MeOH solution, and measured the content of triptolide and its derivatives in n-octanol phase. Drug concentration in the aqueous phase=total drug concentration-drug concentration in the n-octanol phase.
[formula] 3. The Content Determination Method of Triptolide and Its Derivatives in This Embodiment is Determined by High-Performance Liquid Chromatography (2020 Edition, Chinese Pharmacopoeia's Fourth Part Rule 0512), as Follows: • Chromatographic conditions: using chromatographic column: Agilent ZORBAX Eclipse Plus C18 column (4.6 mm×250 mm, 5 μm), mobile phase: 100% MeOH, column temperature: 30° C., flow rate: 1.0 mL/min, sample input: 20 μL, detection wavelength: 218 nm. • Preparation of control solution: accurately weighing triptolide and its derivatives 10 mg, placed in a 10 mL volumetric flask, dissolved with methanol and diluted to the scale line, shake well, as the control reserve solution. • Preparation of standard curve: Reserve solutions of different volumes of control were diluted to produce series solutions with mass concentrations of 5.00, 10.00, 25.00, 50.00, 100.00, 250.00, and 500.00 μg/mL, respectively. 20 μL of each sample was injected into the HPLC system and analyzed according to the “Chromatographic Conditions”. With the concentration C (μg/mL) as the abscissa and the peak area A as the ordinate, the linear regression is obtained. • Assay: accurately absorb 1 mL of each sample solution of triptolide and its derivatives to a 5 mL volumetric flask, dilute with methanol to the scale line, and vortex-mix evenly. 20 μL was injected into the HPLC chromatogram, recorded and calculated by the peak area according to the standard curve method. 4. Experimental Results

[2] = system: Panc 02 pancreatic cancer model; test: In vivo antitumor effect, Panc 02 pancreatic cancer model (Example 5); design: species or system mouse; conditions: ICR mice, tail vein 0.6 mg/kg (per TP) every two days, 4 doses
Protocol: Mouse pancreatic cancer Panc02 cells were cultured in DMEM medium at 37° C., 5% CO2 and passaged on average every two days. During the log growth phase, the cell concentration was adjusted to 1×10^7/mL, and Panc 02 cells were subcutaneously seeded in the right axilla of ICR mice under sterile conditions to establish a mouse pancreatic cancer model. When the mouse tumor volume was grown to 100-300 mm^3, the mice were randomly divided into 6 groups according to the tumor volume, with 6 mice in each group. The blank, TP (DMSO), TP-SA, TP-EA, TP-BA, and TP-LA were set. The mouse tail vein injection was 0.6 mg/kg (per TP), and the blank group was given 0.2 mL saline every two days for a total of 4 doses. The mice were killed on the third day of drug withdrawal, the mice were weighed, the tumor body was dissected and weighed, and the tumor suppression rate was calculated.
[formula] 3. Anti-Tumor Effect

[3] = Pharmacokinetic study in rats; conditions: male, Sprague-Dawley (SD), rat, in vivo, iv, 0.6 mg/kg
Protocol: Rat tail vein dose of equimolar TP 0.6 mg/kg, blood collection time point set at 6 min, 12 min, 18 min, 30 min, 48 min, 1 h, 1.5 h, 2 h, 2.5 h, 3 h, 5 h, 12 h, 24 h, 72 h, 5 SD rats from each group (♂).
Sample processing and analysis method: take plasma with 4 times the amount of methanol to precipitate protein, centrifugation at 12000 r/min for 10 min; remove the supernatant to remove methanol, extract the remaining residue with 400 μL methyl-t-butyl ether twice, centrifugation at 12000 r/min for 10 min. The organic extraction phase was collected, concentrated and dried, 100 μL of methanol was added for redissolution, and the supernatant was centrifuged into the LC-MS/MS system to calculate the plasma concentration by using DAS 2.0 software.

[4] = system: Panc 02 pancreatic cancer model; test: In vivo antitumor effect, Panc 02 pancreatic cancer model (Example 55); design: species or system mouse; conditions: ICR mice, 4 doses
Protocol: Panc 02 pancreatic cancer cells were cultured in DMEM medium at 37° C. with 5% CO2. Cells were passaged every two days during logarithmic growth phase until reaching a concentration of 1×10^7 cells/mL. Under sterile conditions, Panc 02 cells were subcutaneously implanted into the right axilla of ICR mice to establish the pancreatic cancer model. Once the tumor volume grew to 100-300 mm^3, mice were randomly divided into 6 groups of 6 animals each. Groups included blank control group, TP (DMSO) solution group, Minnelide solution group, and TP-LA liposome dose groups. Drugs were administered via tail vein injection at a dose of 0.6 mg/kg (based on TP) every other day for a total of 4 doses. On the third day after the last administration, mice were euthanized. Body weights were recorded, tumors were excised and weighed, and tumor inhibition rates were calculated.
[formula] 3. Antitumor Effects

[5] = in vivo; triptolide released via in vivo conversion of the liposomes, or triptolide itself; cited from earlier work
[6] = CN106946975A; cited from earlier work
[7] = system: tumor; conditions: Huang 2020; cited from earlier work
[8] = system: advanced solid tumors; conditions: patients with advanced solid tumors, intravenous once a week; cited from earlier work
[9] = system: ear vein; test: Vascular irritation evaluation, rabbit ear vein; type: in vivo; conditions: rabbits, ear vein 0.22 mg/kg (based on TP), daily for three days, histology 48 hours after last administration
Protocol: […] (weighing 1.5-2.0 kg) were randomly divided into 6 groups. Each group received intravenous injection via the right ear vein of either saline solution, TP-LA liposomes prepared according to Examples 35, 42, and 53, TP (DMSO) solution, or Minnelide solution, at a dose of 0.22 mg/kg (calculated based on TP), administered at a rate of 1 mL/min. Simultaneously, saline of equal volume was administered via the left ear vein as a control. This procedure was repeated daily for three consecutive days.
During each day of administration, the animals' behavior and pathological changes at the injection site were observed macroscopically. Euthanasia was performed 48 hours after the last administration. Tissue samples were collected approximately 2.0 cm towards the central end from the injection site on the ear vein, fixed in 10% paraformaldehyd solution, dehydrated using an ethanol gradient, embedded in paraffin, and sectioned into slices stained with hematoxylin and […]. All samples were examined using a BX43-DP21 light microscope (Olympus Corporation, Japan), and pathological changes were assessed.

[10] = shake-flask, n-octanol/water, 37° C., read-out: log P
[11] = tail vein 0.6 mg/kg (based on TP) every other day

`CCCCCCCCCCCCCCCCCCCCCCCC(=O)O[C@@H]1[C@@]2(C(C)C)OC2[C@@H]2O[C@]23[C@]12O[C@H]2CC1C2=C(CC[C@@]13C)C(=O)OC2` (stereo partly shown) [Triptolide lignocerate, triptolide lignocerate] showed a logP at 1 day [1, 10] of 3.12 ± 0.03.

For `CC(C)[C@]12O[C@H]1[C@@H]1O[C@]13[C@]1(O[C@H]1C[C@H]1C4=C(CC[C@@]13C)C(=O)OC4)[C@@H]2O` [Triptolide], the logP at 1 day [1] was 0.52 ± 0.01, the Mean tumor weight [2] was 0.517 ± 0.097 g and the “Tumor Suppression rate” value [2] was 41.12%. The AUC(0-inf) [3] was 0.337 ng·h/mL, the Cmax [3] was 0.698 ng/mL and the MRT [3] was 32.8 min. For the same compound, the “[formula] (half-life)” value [3] was 13.2 ± 2.4 min, the Mean tumor weight [4, 11] was 0.417 ± 0.097 g and the Tumor inhibition rate [4, 11] was 40.26%. The “biological half-life of triptolide” value [5] was 15 min, the liposomal encapsulation rate [6] was “less than 50%” and the Tumor inhibition rate [7] was 17.67%.

With `CCCCCCCCCCCCCCCCCCCCCC(=O)O[C@@H]1[C@@]2(C(C)C)OC2[C@@H]2O[C@]23[C@]12O[C@H]2CC1C2=C(CC[C@@]13C)C(=O)OC2` (stereo partly shown) [Triptolide behenate, triptolide behenate] the logP at 1 day [1, 10] was 2.78 ± 0.04.

`CCCCCCCCCCCCCCCCCC(=O)O[C@@H]1[C@@]2(C(C)C)OC2[C@@H]2O[C@]23[C@]12O[C@H]2CC1C2=C(CC[C@@]13C)C(=O)OC2` (stereo partly shown) [Triptolide stearate, triptolide stearate] gave a logP at 1 day [1, 10] of 2.41 ± 0.04.

For `CC(C)[C@]12O[C@H]1[C@@H]1O[C@]13[C@]1(O[C@H]1C[C@H]1C4=C(CC[C@@]13C)C(=O)OC4)[C@@H]2OC(=O)CCC(=O)[O-].[Na+]` [PG490-88Na], the “grade of most frequently reported adverse reactions (anemia, malaise, nausea, vomiting, diarrhea, constipation)” value [8] is listed as 1-2 and the “interindividual variability in pharmacokinetic properties” value [8] is listed as 2- to 3 fold.

Work on `CC(C)[C@]12O[C@H]1[C@@H]1O[C@]13[C@]1(O[C@H]1C[C@H]1C4=C(CC[C@@]13C)C(=O)OC4)[C@@H]2OCOP(=O)(O)O` [Minnelide] yielded a Body weight change [4, 11] of 1.09%, a Mean tumor weight [4, 11] of 0.222 ± 0.029 g and a Tumor inhibition rate [4, 11] of 68.19%. The “tail vein irritation after administration” value ([4]; tail vein 0.6 mg/kg (based on TP)) was “varying degrees of tail swelling and ulceration” and the “vascular irritation, pathological changes of ear vein” value [9] was “congestion and some instances of bleeding”.
